Source: publication PMC10376691, “Inhibition of Acetylcholinesterase and Amyloid-β Aggregation by Piceatannol and Analogs: Assessing In Vitro and In Vivo Impact on a Murine Model of Scopolamine-Induced Memory Impairment” (Antioxidants, 2023)
Entries after “also recorded” stand apart in the source; their conditions may differ. Like-named read-outs stand apart in the source and are kept apart here.

Tests used:
[1] = DPPH radical scavenging activity; conditions: 120 μM DPPH in methanol, 37 °C, 20 min
Protocol: DPPH radical scavenging activity was assayed following a previous report, with some modifications. […] DMSO was used instead of a sample solution in the blank group. […] The scavenging activity of the DPPH radical (%) was calculated with the following equation: (△A515blank − △A515sample) ÷ △A515blank × 100%. The IC50 of the DPPH radical scavenging activity of PIC and its analogs or that of Trolox was calculated from each linear equation by three test concentrations and their radical scavenging activities.

[2] = tested on: scopolamine-induced amnesiac ICR mice; assay: Passive avoidance test in scopolamine-induced amnesiac ICR mice; type: in vivo, mouse; conditions: PIC 50 mg/kg oral once a day, donepezil 5 mg/kg oral, scopolamine 1 mg/kg i.p.
Excerpt: The scopolamine-induced cognitive dysfunctions of amnesiac ICR mice were used to evaluate the effects of PIC pre-treatments on the improvement of learning and memory functions, following previous reports. The animal experimental protocols were reviewed and approved by the Institutional Animal Care and Use Committee, Taipei Medical University (No. LAC-2021-0488). After a two-week acclimation, the mice were randomly divided into four groups (N = 5 for each group). In the first stage, the mice in the PIC group were orally pre-treated with PIC (50 mg/kg) using a feeding tube, once a day from day 1 to day 7; the mice in the blank, control, and donepezil groups were treated with the same volume of distilled water from day 1 to day 7. In the second stage, on day 8 and day 9, the mice in the PIC group and the donepezil group were orally treated once with PIC (50 mg/kg) and donepezil (positive control, 5 mg/kg), respectively, using a feeding tube; the mice in the blank and the control groups were treated with the same volume of distilled water. After 30 min, each mouse was injected intraperitoneally with scopolamine (1 mg/kg, dissolved in PBS), and the mice in the blank group were each injected with an equal volume of PBS instead of the scopolamine solution. Again, 30 min after the scopolamine or PBS injection, a learning and memory evaluation was performed on each mouse with the use of a 2-day passive avoidance test. All the mice were sacrificed at the end of the animal experiments, and the brain tissues of the mice in each group were isolated, weighted, and stored at −80 °C for further use.
A 2-day passive avoidance test, which included an acquisition trial on the first day and a retention trial on the second day, was used to evaluate the learning and memory functions of the scopolamine-induced cognitive dysfunctions of amnesiac ICR mice after PIC and donepezil treatments, following previous reports. A shuttle chamber (AccuScan Instruments Inc., Columbus, OH, USA) with a light box and a dark box separated by a sliding door was used. On day 8, after acclimation around the shuttle chamber for 30 min, each scopolamine-injected or PBS-injected mouse was placed in the light box for the acquisition trial. Once the mouse entered the dark box, the step-through latency (s) was recorded, and the sliding door was closed at the same time. Immediately after, the mouse was administered an electric foot shock (0.3 mA for 3 s) via the wired metal floor and then sent back to the cage. […] The step-through latency (period of time that each mouse stayed in the light box) was recorded again. […] The protein content of the whole brain extracts from the mice was quantified using the BCA protein kit, with bovine serum albumin as the standard protein. […]

[3] = Neurite outgrowth and cell viability, two-color fluorescence assay kit; type: cell-based; conditions: human, 3-day or 6-day treatment, green fluorescence, read-out: cell viability relative to the control
Protocol: (§1) The SH-SY5Y cells were grown in DMEM/F-12 medium supplemented with 10% FBS at 37 °C under a humidified atmosphere and 5% CO2 [41]. […] The MTT was used to evaluate cell viability, and the absorbance at 570 nm was determined. The DMSO used instead of the sample solution was blank (recognized as 100%), and each treatment was expressed as relative cell viability (%). To study the stimulation of neurite outgrowth, the SH-SY5Y cells (5000 cells/well) were seeded on a 96-well plate pre-coated with poly-L-lysine and then cultured in the DMEM/F-12 medium containing 10% FBS overnight at 37 °C under a humidified atmosphere and 5% CO2. After being removed from the culture medium, each PIC, GNT, RHA, and isoRHA (at a final concentration of 10 μM in the 0.1%DMSO) or 0.1% DMSO (the control) was added to the DMEM/F-12 medium containing 10% FBS and refreshed every three days. On day 3 and day 6, each of the culture plates was photographed using an inverted microscope (ECLIPSE TS100, Nikon Instruments Inc., Tokyo, Japan). The culture medium was removed and washed with PBS, and the cultured cells in each well were fixed with 4% paraformaldehyde. To measure cell viability and quantify the neurite outgrowths of the treated SH-SY5Y in a 96-well plate, the neurite outgrowth staining kit (a two-color fluorescence assay kit) was used, following a previous report or the protocol in the manufacturer’s manual (publication number: MAN0007224), which included a cell membrane-stained fluorescent dye (orange-red fluorescence), a cell viability indicator (green fluorescence), and a reagent for background masking. […] The value for the control was recognized as 100%, and each treatment was expressed relative to the control.

SH-SY5Y cells [4] = assay: as above; type: cell-based; conditions: 10 μM; for stimulation of neurite outgrowths: 3-day or 6-day treatment, orange-red fluorescence, vs control
Protocol: as §1

SH-SY5Y cells [5] = assay: Neuroprotection against Aβ peptide (25–35)-induced cell deaths (MTT); type: cell-based, human; conditions: pre-treatment 1, 2 and 10 μM for 24 h, then 40 μg/mL Aβ (25–35) 24 h; vs control p < 0.05
Protocol: (§2) The human SH-SY5Y neuroblastoma cell lines (CRL-2266, Lot No. 58979771) were purchased from American Type Culture Collection (Manassas, VA, USA) and used as models to investigate PIC and its analogs for neuroprotective activities against Aβ-induced cell deaths and the stimulation of neurite outgrowths. The SH-SY5Y cells were grown in DMEM/F-12 medium supplemented with 10% FBS at 37 °C under a humidified atmosphere and 5% CO2 [41]. […]. The SH-SY5Y cells (10,000 cells/well) were seeded and cultured in a DMEM/F-12 medium containing 10% FBS for 24 h at 37 °C under a humidified atmosphere and 5% CO2. […] The medium was then removed, and 40 μg/mL Aβ peptide (25–35) (dissolved in PBS) or an equal aliquot of PBS was added to the medium for another 24 h culture. The MTT was used to evaluate cell viability, and the absorbance at 570 nm was determined. The DMSO used instead of the sample solution was blank (recognized as 100%), and each treatment was expressed as relative cell viability (%). To study the stimulation of neurite outgrowth, the SH-SY5Y cells (5000 cells/well) were seeded on a 96-well plate pre-coated with poly-L-lysine and then cultured in the DMEM/F-12 medium containing 10% FBS overnight at 37 °C under a humidified atmosphere and 5% CO2. After being removed from the culture medium, each PIC, GNT, RHA, and isoRHA (at a final concentration of 10 μM in the 0.1%DMSO) or 0.1% DMSO (the control) was added to the DMEM/F-12 medium containing 10% FBS and refreshed every three days. On day 3 and day 6, each of the culture plates was photographed using an inverted microscope (ECLIPSE TS100, Nikon Instruments Inc., Tokyo, Japan). The culture medium was removed and washed with PBS, and the cultured cells in each well were fixed with 4% paraformaldehyde. To measure cell viability and quantify the neurite outgrowths of the treated SH-SY5Y in a 96-well plate, the neurite outgrowth staining kit (a two-color fluorescence assay kit) was used, following a previous report or the protocol in the manufacturer’s manual (publication number: MAN0007224), which included a cell membrane-stained fluorescent dye (orange-red fluorescence), a cell viability indicator (green fluorescence), and a reagent for background masking. The fluorescence ratios of Ex555nm/Em565nm and Ex495nm/Em515nm were determined for the neurite outgrowths and the cell viabilities, respectively. The value for the control was recognized as 100%, and each treatment was expressed relative to the control.

Aβ peptide (1–42) = target: T1, Aβ peptide (1–42) (Homo sapiens, UniProt P05067); assay: biochemical
T1 construct: The Aβ peptide (1–42) was synthesized and purchased from Kelowna International Scientific Inc; purchased Kelowna International Scientific Inc. (New Taipei, Taiwan); host or cells: chemical synthesis
Protocol: To prepare the 10 μM Aβ peptide working solution, commercial Aβ peptide was first weighted and dissolved in HFIP to 1 mM. Next, the solvent was evaporated in a hood and then re-dissolved using 100 μL of 60 mM NaOH. It was then diluted to 10 μM working solutions with 50 mM phosphate buffer (pH 7.4, containing 150 mM sodium chloride and 1 mM EDTA), following previous reports. […] DMSO instead of the sample solution was used as the control. The 50 mM phosphate buffer was used instead of the Aβ working solution as the sample blank. […] The IC50 of the inhibition against the Aβ aggregation of PIC and its analogs was calculated from each linear equation using three test concentrations and their inhibition capacities.

recombinant human AChE = target: T2, recombinant human AChE (Homo sapiens, UniProt P22303); assay: AChE inhibitory activity in vitro (acetylthiocholine/DTNB); type: biochemical
T2 construct: purchased R&D Systems Inc. (Minneapolis, MN, USA)
Protocol: Commercially synthesized acetylthiocholine iodide was hydrolyzed using AChE to release thiocholine, which was coupled with DTNB to generate the yellowish 5-thio-2-nitrobenzoate for in vitro AChE activity assays. For the AChE inhibitory activity assay, each analog was dissolved in the DMSO, and final concentrations of 100, 200, and 500 μM were used for comparisons. An equal volume of DMSO instead of the sample solution was used in the blank group and expressed as 100% AChE activity. […] AChE inhibition (%) was calculated as follows: [(A405blank − A405sample)/(A405blank)] × 100%.

SH-SY5Y cells [6] = assay: Cytotoxicity on SH-SY5Y cells (MTT); type: cell-based; conditions: 1, 2, 5 and 10 μM, MTT (Figure S1)
Protocol: as §2, with “To study the stimulation of neurite outgrowth, the SH-SY5Y cells (5000 cells/well) were seeded on a 96-well plate pre-coated with poly-L-lysine and then cultured in the DMEM/F-12 medium containing 10% FBS overnight at 37 °C under a humidified atmosphere and 5% CO2. After being removed from the culture medium, each PIC, GNT, RHA, and isoRHA (at a final concentration of 10 μM in the 0.1%DMSO) or 0.1% DMSO (the control) was added to the DMEM/F-12 medium containing 10% FBS and refreshed every three days. On day 3 and day 6, each of the culture plates was photographed using an inverted microscope (ECLIPSE TS100, Nikon Instruments Inc., Tokyo, Japan). The culture medium was removed and washed with PBS, and the cultured cells in each well were fixed with 4% paraformaldehyde.” left out, “The value for the control was recognized as 100%, and each treatment was expressed relative to the control.” left out
The following supporting information can be downloaded at: https://www.mdpi.com/article/10.3390/antiox12071362/s1. […] The MTT was used to evaluate cell viability, and the absorbance at 570 nm was determined. The DMSO used instead of the sample solution was blank (recognized as 100%), and each treatment was expressed as relative cell viability (%). […]

[7] = oral administration to rats; cited from earlier work
[8] = rats, cited from earlier work
[9] = tested on: mild to moderate AD patients; conditions: human trial, 52 weeks, cited from earlier work
[10] = 500 mg once daily up to 1000 mg twice daily

T1 sequence (P05067 672-713): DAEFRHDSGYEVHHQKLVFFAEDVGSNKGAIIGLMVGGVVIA
T2 sequence (P22303 32-614): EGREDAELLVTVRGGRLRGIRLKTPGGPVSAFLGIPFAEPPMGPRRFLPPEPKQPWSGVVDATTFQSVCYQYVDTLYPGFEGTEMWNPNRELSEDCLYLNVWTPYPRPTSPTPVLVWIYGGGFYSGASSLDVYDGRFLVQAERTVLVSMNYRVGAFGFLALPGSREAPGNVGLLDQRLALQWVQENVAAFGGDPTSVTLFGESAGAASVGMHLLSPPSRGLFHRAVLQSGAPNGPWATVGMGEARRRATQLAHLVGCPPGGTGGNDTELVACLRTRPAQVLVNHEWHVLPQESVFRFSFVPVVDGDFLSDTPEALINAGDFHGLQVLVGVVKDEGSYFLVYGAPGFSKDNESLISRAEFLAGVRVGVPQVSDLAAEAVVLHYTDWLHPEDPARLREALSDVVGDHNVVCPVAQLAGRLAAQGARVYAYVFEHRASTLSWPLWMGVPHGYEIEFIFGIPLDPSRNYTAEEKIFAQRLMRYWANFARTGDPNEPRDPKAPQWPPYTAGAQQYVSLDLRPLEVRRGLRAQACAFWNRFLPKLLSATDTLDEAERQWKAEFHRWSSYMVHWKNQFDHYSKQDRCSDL

## Cc1c(C)c2c(c(C)c1O)CCC(C)(C(=O)O)O2 (stereo not shown) [Trolox, 6-hydroxy-2,5,7,8-tetramethylchroman-2-carboxylic acid, reference compound]
[1]
  IC50: 83.1 µM

## COc1cc2c(cc1OC)C(=O)C(CC1CCN(Cc3ccccc3)CC1)C2 (stereo not shown) [donepezil, reference compound]
[2]
  step-through latency, acquisition trial (first day): no significant difference among the groups
[2]; vs control p < 0.05
  step-through latency, retention trial (second day): longer staying time

## COc1ccc(/C=C/c2cc(O)cc(O)c2)cc1O [RHA, 3,5,3′-trihydroxy-4′-methoxystilbene]
[3]; SH-SY5Y neuroblastoma cells
  viability at 10 µM: 80%
SH-SY5Y cells [4]
  stimulation of neurite outgrowths: stimulate neurite outgrowths; also recorded: showed stimulated activities toward neurite outgrowths; also recorded: showed stimulatory activity in neurite outgrowths
SH-SY5Y cells [4]; calculated
  total neurite lengths in living SH-SY5Y cells, fold of the control: 1.375 fold
SH-SY5Y cells [5]
  neuroprotection: cell viability against Aβ peptide (25–35)-induced cell deaths: elevated cell viabilities
Aβ peptide (1–42)
  IC50: 2.93 µM
Recombinant human AChE
  IC50: 322 µM
[1]
  IC50: 57.8 µM

## Oc1cc(O)cc(C=Cc2c(O)cccc2O)c1 [GNT, 3,5,2′,6′-tetrahydroxystilbene]
[3]
  viability at 10 µM: 80%
SH-SY5Y cells [4]
  stimulation of neurite outgrowths: not PIC nor GNT; also recorded: not PIC and GNT
SH-SY5Y cells [5]
  neuroprotection: cell viability against Aβ peptide (25–35)-induced cell deaths: elevated cell viabilities
Aβ peptide (1–42)
  IC50: 1.76 µM
SH-SY5Y cells [6]
  cytotoxicity on SH-SY5Y cells: insignificant cytotoxicity
Recombinant human AChE
  IC50: 276 µM
[1]
  IC50: 97 µM

## Oc1ccc(C=Cc2cc(O)cc(O)c2)cc1 [RSV, 3,5,4′-trihydroxystilbene]
SH-SY5Y cells [5]
  neuroprotection: cell viability against Aβ peptide (25–35)-induced cell deaths: elevated cell viabilities
SH-SY5Y cells [6]
  cytotoxicity on SH-SY5Y cells: insignificant cytotoxicity
[7]
  bioavailability: 29.8%
  half-life: 1.48 h
[8]; co-administration of PIC and RSV, each at 180 μmol/kg
  AUC0–8h in plasma, intact compound: 4.1 µM·h
[8]; intragastric, 90 μmol/kg
  AUC0–8h in plasma, intact compound: 2.0 µM·h
[8]; intragastric, 180 μmol/kg
  AUC0–8h in plasma, intact compound: 4.7 µM·h
[8]; intragastric, 360 μmol/kg
  AUC0–8h in plasma, intact compound: 8.6 µM·h
[9]; [10]
  crossing of the blood–brain barrier: could cross the blood–brain barrier
  safety and tolerance: safe and had good tolerance with adverse effects of nausea, diarrhea, and weight loss
[9]
  Aβ42 and Aβ40 levels in the cerebrospinal fluid: reduced
